Like-named read-outs stand apart in the source and are kept apart here.
Experiments:
[1] = test system: MCF7 cells; assay: Cell viability assay (PrestoBlue); assay type: cell-based; settings: Homo sapiens, MCF7, 120 h; cell viability at day 5; read-out: Antiproliferative activity (EC50) MCF7
[2] = test system: MDA-MB-231 cells; assay: Cell viability assay (PrestoBlue); assay type: cell-based; settings: Homo sapiens, MDA-MB-231, 120 h, read-out: Antiproliferative activity (EC50) MDA-MB-231; cell viability at day 5
[3] = test system: SYF fibroblasts (deficient for Src, Yes, and Fyn); assay: Cell viability assay (PrestoBlue); assay type: cell-based, murine; settings: Mus musculus, Fibroblast, 120 h; cell viability at day 5; read-out: Antiproliferative activity (EC50) SYF (−/− Src)
[4] = target: mTOR (Homo sapiens (Human), UniProt P42345); assay: Kinase screening assay (IC50); assay type: biochemical; settings: 10 μM ATP; read-out: Target inhibition (IC50) mTOR
[5] = target: PDGFRa (Homo sapiens (Human), UniProt P16234); assay: Kinase screening assay (IC50); assay type: biochemical; settings: 10 μM ATP; read-out: Target inhibition (IC50) PDGFRa
[6] = target: FGR (Homo sapiens (Human), UniProt P09769); assay: Kinase screening assay (IC50)
[7] = target: FRK/PTK5 (Homo sapiens (Human), UniProt P42685); assay: Kinase screening assay (IC50); settings: read-out: Target inhibition (IC50) FRK/PTK5; 10 μM ATP
[8] = target: KIT (Homo sapiens (Human), UniProt P10721); assay: Kinase screening assay (IC50); settings: read-out: Target inhibition (IC50) KIT; 10 μM ATP
[9] = target: ABL (Homo sapiens (Human), UniProt P00519); assay: Kinase screening assay (IC50); assay type: biochemical; settings: 10 μM ATP; read-out: Target inhibition (IC50) ABL
[10] = target: LCK (Homo sapiens (Human), UniProt P06239); assay: Kinase screening assay (IC50)
[11] = target: RET (Homo sapiens (Human), UniProt P07949); assay: Kinase screening assay (IC50); settings: read-out: Target inhibition (IC50) RET; 10 μM ATP
[12] = target: BLK (Homo sapiens (Human), UniProt P51451); assay: Kinase screening assay (IC50); settings: read-out: Target inhibition (IC50) BLK; 10 μM ATP
[13] = target: HCK (Homo sapiens (Human), UniProt P08631); assay: Kinase screening assay (IC50); settings: read-out: Target inhibition (IC50) HCK; 10 μM ATP
[14] = target: LYN (Homo sapiens (Human), UniProt P07948); assay: Kinase screening assay (IC50); settings: read-out: Target inhibition (IC50) LYN; 10 μM ATP
[15] = read-out: Target inhibition (IC50) LCK, 10 μM ATP

Chain of LCK (P06239 whole entry): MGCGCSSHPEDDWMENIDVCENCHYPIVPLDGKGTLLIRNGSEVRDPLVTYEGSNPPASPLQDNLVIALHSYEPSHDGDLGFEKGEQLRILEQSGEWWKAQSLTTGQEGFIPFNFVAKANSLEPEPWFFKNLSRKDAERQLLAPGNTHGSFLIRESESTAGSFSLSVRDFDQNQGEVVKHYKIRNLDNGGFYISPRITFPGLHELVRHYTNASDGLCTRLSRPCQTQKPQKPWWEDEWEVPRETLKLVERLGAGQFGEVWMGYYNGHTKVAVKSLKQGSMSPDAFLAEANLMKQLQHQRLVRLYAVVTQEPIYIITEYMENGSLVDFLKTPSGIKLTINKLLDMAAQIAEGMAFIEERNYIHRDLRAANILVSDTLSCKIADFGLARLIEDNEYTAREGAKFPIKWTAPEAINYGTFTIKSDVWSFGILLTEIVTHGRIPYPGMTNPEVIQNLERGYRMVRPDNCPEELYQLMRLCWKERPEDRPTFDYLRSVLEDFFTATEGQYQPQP
Chain of FGR (P09769 whole entry): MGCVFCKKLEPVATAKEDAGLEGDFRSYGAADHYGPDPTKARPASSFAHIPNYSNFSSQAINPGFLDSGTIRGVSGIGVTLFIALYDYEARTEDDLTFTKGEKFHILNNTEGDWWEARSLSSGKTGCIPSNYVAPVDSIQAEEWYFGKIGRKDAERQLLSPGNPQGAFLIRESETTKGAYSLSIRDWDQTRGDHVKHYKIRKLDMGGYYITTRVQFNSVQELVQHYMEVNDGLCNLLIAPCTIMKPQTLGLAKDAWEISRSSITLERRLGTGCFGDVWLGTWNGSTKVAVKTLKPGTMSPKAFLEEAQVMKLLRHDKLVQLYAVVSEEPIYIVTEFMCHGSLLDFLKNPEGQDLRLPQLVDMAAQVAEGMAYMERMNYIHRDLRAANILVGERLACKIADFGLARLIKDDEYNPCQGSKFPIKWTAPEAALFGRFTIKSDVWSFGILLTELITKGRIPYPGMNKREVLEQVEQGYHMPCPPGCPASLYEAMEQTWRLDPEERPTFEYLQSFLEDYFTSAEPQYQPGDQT
Chain of BLK (P51451 whole entry): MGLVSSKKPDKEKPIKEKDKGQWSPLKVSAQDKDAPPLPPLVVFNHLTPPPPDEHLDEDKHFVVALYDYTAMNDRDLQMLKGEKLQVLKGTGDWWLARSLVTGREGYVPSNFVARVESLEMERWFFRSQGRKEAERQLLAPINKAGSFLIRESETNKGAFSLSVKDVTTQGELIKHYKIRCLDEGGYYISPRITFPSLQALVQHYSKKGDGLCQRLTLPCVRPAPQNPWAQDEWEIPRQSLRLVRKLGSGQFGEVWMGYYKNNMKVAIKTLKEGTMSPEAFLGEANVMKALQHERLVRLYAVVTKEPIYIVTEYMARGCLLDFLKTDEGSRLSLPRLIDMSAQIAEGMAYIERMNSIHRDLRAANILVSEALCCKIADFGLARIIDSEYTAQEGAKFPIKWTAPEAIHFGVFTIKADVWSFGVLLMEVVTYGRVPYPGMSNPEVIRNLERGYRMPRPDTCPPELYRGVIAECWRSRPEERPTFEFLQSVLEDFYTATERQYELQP
Chain of LYN (P07948 whole entry): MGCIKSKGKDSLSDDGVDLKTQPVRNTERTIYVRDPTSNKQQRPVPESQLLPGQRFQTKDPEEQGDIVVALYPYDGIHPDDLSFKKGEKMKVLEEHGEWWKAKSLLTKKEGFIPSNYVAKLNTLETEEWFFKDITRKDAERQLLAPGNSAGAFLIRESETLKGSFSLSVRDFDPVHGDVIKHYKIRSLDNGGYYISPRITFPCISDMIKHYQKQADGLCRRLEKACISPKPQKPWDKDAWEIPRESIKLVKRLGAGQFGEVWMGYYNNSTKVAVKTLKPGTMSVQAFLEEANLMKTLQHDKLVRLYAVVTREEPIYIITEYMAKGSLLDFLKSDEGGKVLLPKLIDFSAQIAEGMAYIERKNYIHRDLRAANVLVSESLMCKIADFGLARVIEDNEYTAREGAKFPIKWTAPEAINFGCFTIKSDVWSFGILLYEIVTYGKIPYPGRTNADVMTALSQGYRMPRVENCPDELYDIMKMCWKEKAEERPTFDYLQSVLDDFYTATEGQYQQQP
Chain of HCK (P08631 whole entry): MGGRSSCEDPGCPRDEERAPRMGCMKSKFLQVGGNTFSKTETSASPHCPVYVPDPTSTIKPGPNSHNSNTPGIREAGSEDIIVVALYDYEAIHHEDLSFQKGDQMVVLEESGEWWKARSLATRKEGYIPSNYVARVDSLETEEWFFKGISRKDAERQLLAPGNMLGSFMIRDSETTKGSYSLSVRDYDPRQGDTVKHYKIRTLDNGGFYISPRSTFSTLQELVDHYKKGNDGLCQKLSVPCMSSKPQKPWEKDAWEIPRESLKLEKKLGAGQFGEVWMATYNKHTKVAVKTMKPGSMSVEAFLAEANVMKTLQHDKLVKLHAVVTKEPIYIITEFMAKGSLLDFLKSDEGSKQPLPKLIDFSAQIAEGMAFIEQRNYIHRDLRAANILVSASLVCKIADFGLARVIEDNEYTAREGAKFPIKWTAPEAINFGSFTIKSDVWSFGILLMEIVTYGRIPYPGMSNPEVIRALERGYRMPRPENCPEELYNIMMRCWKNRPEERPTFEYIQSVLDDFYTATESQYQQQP
Chain of FRK/PTK5 (P42685 whole entry): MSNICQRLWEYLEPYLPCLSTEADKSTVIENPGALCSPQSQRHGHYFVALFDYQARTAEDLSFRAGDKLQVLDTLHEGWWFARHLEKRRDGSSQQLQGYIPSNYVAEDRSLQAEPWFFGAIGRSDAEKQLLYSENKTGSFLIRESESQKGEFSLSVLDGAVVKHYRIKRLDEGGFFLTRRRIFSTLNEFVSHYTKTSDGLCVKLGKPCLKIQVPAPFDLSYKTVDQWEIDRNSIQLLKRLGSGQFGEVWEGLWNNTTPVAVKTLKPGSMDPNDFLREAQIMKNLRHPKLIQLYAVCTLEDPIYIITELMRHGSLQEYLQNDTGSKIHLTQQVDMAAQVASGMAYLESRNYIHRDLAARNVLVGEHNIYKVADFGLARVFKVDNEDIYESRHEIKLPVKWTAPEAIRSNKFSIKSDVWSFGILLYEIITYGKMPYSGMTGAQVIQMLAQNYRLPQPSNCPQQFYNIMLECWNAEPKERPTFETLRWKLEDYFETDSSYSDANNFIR
Chain of RET (P07949 29-1114): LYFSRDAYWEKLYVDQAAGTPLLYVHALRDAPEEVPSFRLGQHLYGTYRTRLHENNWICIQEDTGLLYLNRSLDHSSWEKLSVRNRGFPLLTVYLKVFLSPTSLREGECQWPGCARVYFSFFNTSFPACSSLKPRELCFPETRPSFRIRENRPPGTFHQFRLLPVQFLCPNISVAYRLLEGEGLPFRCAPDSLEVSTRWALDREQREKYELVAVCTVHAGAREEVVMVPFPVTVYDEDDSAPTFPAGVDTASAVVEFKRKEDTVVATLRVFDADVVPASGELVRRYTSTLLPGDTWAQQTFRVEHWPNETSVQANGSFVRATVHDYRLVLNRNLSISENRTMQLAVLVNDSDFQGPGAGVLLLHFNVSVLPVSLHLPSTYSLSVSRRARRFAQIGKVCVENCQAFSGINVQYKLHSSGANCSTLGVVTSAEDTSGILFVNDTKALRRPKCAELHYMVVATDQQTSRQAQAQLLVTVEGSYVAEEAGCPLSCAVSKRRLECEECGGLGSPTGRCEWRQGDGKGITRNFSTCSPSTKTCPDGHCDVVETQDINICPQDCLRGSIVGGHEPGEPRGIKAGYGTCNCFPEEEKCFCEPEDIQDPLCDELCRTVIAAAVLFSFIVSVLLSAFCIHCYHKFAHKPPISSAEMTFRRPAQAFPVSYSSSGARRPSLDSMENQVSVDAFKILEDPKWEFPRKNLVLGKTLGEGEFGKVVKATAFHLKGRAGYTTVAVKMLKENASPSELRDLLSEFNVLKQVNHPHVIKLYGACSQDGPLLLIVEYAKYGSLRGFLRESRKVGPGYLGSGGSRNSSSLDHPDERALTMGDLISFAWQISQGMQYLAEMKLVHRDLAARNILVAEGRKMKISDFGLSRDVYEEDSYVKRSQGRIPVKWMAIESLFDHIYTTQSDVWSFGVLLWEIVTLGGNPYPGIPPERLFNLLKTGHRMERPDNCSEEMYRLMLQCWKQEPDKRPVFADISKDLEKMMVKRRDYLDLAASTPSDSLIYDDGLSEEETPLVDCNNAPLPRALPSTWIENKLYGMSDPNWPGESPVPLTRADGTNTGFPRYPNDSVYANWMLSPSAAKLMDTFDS

EC50 [1] | EC50 [2] | SMILES | IC50 [4] | IC50 [5] | IC50 [8] | other results
> 10000 nM |  | CN(C)CC1CCN(CCn2nc(-c3ccoc3)c3c(N)ncnc32)CC1 [Compound 226, 1-[2-[4-(dimethylaminomethyl)-1-piperidyl]ethyl]-3-(3-furyl)pyrazolo[3,4-d]pyrimidin-4-amine] |  |  |  | 
 | 1000 to 10000 nM | COc1cc(-c2nn(CCN3CCCC(N(C)C)C3)c3ncnc(N)c23)ccc1NC(=O)OC(C)(C)C (stereo not shown) [Compound 5-103, tert-butyl N-[4-[4-amino-1-[2-[3-(dimethylamino)-1-piperidyl]ethyl]pyrazolo[3,4-d]pyrimidin-3-yl]-2-methoxy-phenyl]carbamate] |  |  |  | 
> 10000 nM |  | CN(C)CC1CCN(CCn2nc(-c3cccc(O)c3)c3c(N)ncnc32)CC1 [Compound 225, 3-[4-amino-1-[2-[4-(dimethylaminomethyl)-1-piperidyl]ethyl]pyrazolo[3,4-d]pyrimidin-3-yl]phenol] |  |  |  | 
1000 to 10000 nM | 1000 to 10000 nM | COc1cc(-c2nn(CCN3CCC(N(C)C)CC3)c3ncnc(N)c23)ccc1N [Compound 532, 3-(4-amino-3-methoxy-phenyl)-1-[2-[4-(dimethylamino)-1-piperidyl]ethyl]pyrazolo[3,4-d]pyrimidin-4-amine] |  |  |  | EC50 [3]: > 10000 nM
 |  | COc1cc(-c2nn(CCN3CCC(N(C)C)CC3)c3ncnc(N)c23)ccc1NC(=O)CC(C)(C)C [Compound 526, N-[4-[4-amino-1-[2-[4-(dimethylamino)-1-piperidyl]ethyl]pyrazolo[3,4-d]pyrimidin-3-yl]-2-methoxy-phenyl]-3,3-demethyl-butanamide] | > 1000 nM | > 1000 nM | > 1000 nM | IC50 [6]: 10 to 100 nM; IC50 [7]: > 1000 nM; IC50 [9]: > 1000 nM; IC50 [10]: 10 to 100 nM; IC50 [11]: > 1000 nM
 | > 10000 nM | COc1cc(-c2ccn(CCN3CCC(N(C)C)CC3)n2)ccc1NC(=O)OC(C)(C)C [Compound 597, tert-butyl N-[4-[1-[2-[4-(dimethylamino)-1-piperidyl]ethyl]pyrazol-3-yl]-2-methoxy-phenyl]carbamate] |  |  |  | 
 |  | CN(C)CC1CCN(CCn2nc(-c3cnc4[nH]ccc4c3)c3c(N)ncnc32)CC1 [Compound 221, 1-[2-[4-(dimethylaminomethyl)-1-piperidyl]ethyl]-3-(1H-pyrrolo[2,3-b]pyridin-5-yl)pyrazolo[3,4-d]pyrimidin-4-amine] | > 1000 nM | > 1000 nM | > 1000 nM | 
> 10000 nM | > 10000 nM | COc1cc(-c2nn(CCN3CCC(N(C)C)CC3)c3ncnc(N)c23)ccc1NC(=O)Cc1ccccc1 [Compound 530, N-[4-[4-amino-1-[2-[4-(dimethylamino)-1-piperidyl]ethyl]pyrazolo[3,4-d]pyrimidin-3-yl]-2-methoxy-phenyl]-2-phenyl-acetamide] |  |  |  | EC50 [3]: > 10000 nM
> 10000 nM |  | CN(C)CC1CCN(CCn2nc(-c3ccc4ncccc4c3)c3c(N)ncnc32)CC1 [Compound 223, 1-[2-[4-(dimethylaminomethyl)-1-piperidyl]ethyl]-3-(6-quinolyl)pyrazolo[3,4-d]pyrimidin-4-amine] |  |  |  | 
 |  | COc1cc(-c2nn(CCN3CCC(N(C)C)CC3)c3ncnc(N)c23)ccc1NC(=O)NC(C)(C)C [Compound 540, 1-[4-[4-amino-1-[2-[4-(dimethylamino)-1-piperidyl]ethyl]pyrazolo[3,4-d]pyrimidin-3-yl]-2-methoxy-phenyl]-3-tert-butyl-urea] | > 1000 nM | > 1000 nM | > 1000 nM | IC50 [6]: 10 to 100 nM; IC50 [7]: > 1000 nM; IC50 [10]: 10 to 100 nM; IC50 [11]: > 1000 nM
> 10000 nM |  | CN(C)CC1CCN(CCn2nc(I)c3c(N)ncnc32)CC1 [Compound 232, 1-[2-[4 (dimethylaminomethyl)-1-piperidyl]ethyl]-3-iodo-pyrazolo[3,4-d]pyrimidin-4-amine] |  |  |  | 
> 10000 nM | > 10000 nM | CN(C)C1CCN(CCn2nc(-c3cccc(NC(=O)OC(C)(C)C)c3)c3c(N)ncnc32)CC1 [Compound 542, tert-butyl N-[3-[4-amino-1-[2-[4-(dimethylamino)-1-piperidyl]ethyl]pyrazolo[3,4-d]pyrimidin-3-yl]phenyl]carbamate] |  |  |  | EC50 [3]: > 10000 nM
 | > 10000 nM | CN(C)C1CCN(CCn2nc(-c3ccc(CC#N)cc3)c3c(N)ncnc32)CC1 [Compound 5-100, 2-[4-[4-amino-1-[2-[4-(dimethylamino)-1-piperidyl]ethyl]pyrazolo[3,4-d]pyrimidin-3-yl]phenyl]acetonitrile] |  |  |  | 
 |  | Cc1ccc(-c2nn(CCN3CCN(CCN(C)C)CC3)c3ncnc(N)c23)cc1 [Compound 105, 1-[2-[4-(2-dimethylaminoethyl)piperazin-1-yl]ethyl]-3-(p-tolyl)pyrazolo[3,4-d]pyrimidin-4-amine] | > 1000 nM | > 1000 nM | > 1000 nM | IC50 [7]: > 1000 nM; IC50 [9]: > 1000 nM; IC50 [10, 15]: > 1000 nM; IC50 [11]: > 1000 nM; IC50 [12]: > 1000 nM; IC50 [13]: > 1000 nM
 | 1000 to 10000 nM | COc1cc(-c2nn(CCN3CCC(OC)CC3)c3ncnc(N)c23)ccc1NC(=O)OC(C)(C)C [Compound 593, tert-butyl N-[4-[4-amino-1-[2-(4-methoxy-1-piperidyl)ethyl]pyrazolo[3,4-d]pyrimidin-3-yl]-2-methoxy-phenyl]carbamate] |  |  |  | 
 |  | Cc1ccc(-c2nn(CCN3CCC(CN(C)C)CC3)c3ncnc(N)c23)cc1 [Compound 112, 1-[2-[4-(dimethylaminomethyl)-1-piperidyl]ethyl]-3-(p-tolyl)pyrazolo[3,4-d]pyrimidin-4-amine] | > 1000 nM | > 1000 nM | > 1000 nM | IC50 [7]: > 1000 nM; IC50 [10, 15]: > 1000 nM; IC50 [14]: > 1000 nM; IC50 [11]: > 1000 nM; IC50 [12]: > 1000 nM; IC50 [13]: > 1000 nM
> 10000 nM |  | CN(C)CC1CCN(CCn2nc(C#Cc3ccccc3)c3c(N)ncnc32)CC1 [Compound 230, 1-[2-[4-(dimethylaminomethyl)-1-piperidyl]ethyl]-3-(2-phenylethynyl)pyrazolo[3,4-d]pyrimidin-4-amine] |  |  |  | 
> 10000 nM |  | COc1ccc(-c2nn(CCN3CCC(CN(C)C)CC3)c3ncnc(N)c23)cc1OC [Compound 224, 3-(3,4-dimethoxyphenyl)-1-[2-[4-(dimethylaminomethyl)-1-piperidyl]ethyl]pyrazolo[3,4-d]pyrimidin-4-amine] |  |  |  | 
> 10000 nM | > 10000 nM | COc1ccc(-c2nn(CCN3CCC(N(C)C)CC3)c3ncnc(N)c23)cc1NC(=O)OC(C)(C)C [Compound 559, tert-butyl N-[5-[4-amino-1-[2-[4-(dimethylamino)-1-piperidyl]ethyl]pyrazolo[3,4-d]pyrimidin-3-yl]-2-methoxy-phenyl]carbamate] |  |  |  | 
> 10000 nM | > 10000 nM | CN(C)C1CCN(CCn2nc(-c3ccc(NC(=O)OC(C)(C)C)nc3)c3c(N)ncnc32)CC1 [Compound 549, tert-butyl N-[5-[4-amino-1-[2-[4-(dimethylamino)-1-piperidyl]ethyl]pyrazolo[3,4-d]pyrimidin-3-yl]-2-pyridyl]carbamate] |  |  |  | 
 |  | Cc1ccc(-c2nn(CCN3CCC(CCN(C)C)CC3)c3ncnc(N)c23)cc1 [Compound 113, 1-[2-[4-(2-dimethylaminoethyl)-1-piperidyl]ethyl]-3-(p-tolyl)pyrazolo[3,4-d]pyrimidin-4-amine] | > 1000 nM | > 1000 nM | > 1000 nM | IC50 [6]: 100 to 1000 nM; IC50 [7]: > 1000 nM; IC50 [10, 15]: > 1000 nM; IC50 [14]: > 1000 nM; IC50 [11]: > 1000 nM; IC50 [13]: > 1000 nM
 |  | Cc1ccc(-c2nn(CCN3CCN(C)CC3)c3ncnc(N)c23)cc1 [Compound 103] | > 1000 nM | > 1000 nM | > 1000 nM | IC50 [7]: > 1000 nM; IC50 [9]: > 1000 nM; IC50 [10, 15]: > 1000 nM; IC50 [14]: > 1000 nM; IC50 [11]: > 1000 nM; IC50 [12]: > 1000 nM; IC50 [13]: > 1000 nM
 |  | CN(C)C1CCN(CCn2nc(-c3cnc4[nH]ccc4c3)c3c(N)ncnc32)CC1 [Compound 402, 1-[2-[4-(dimethylamino)-1-piperidyl]ethyl]-3-(1H-pyrrolo[2,3-b]pyridin-5-yl)pyrazolo[3,4-d]pyrimidin-4-amine] | > 1000 nM | > 1000 nM | > 1000 nM | IC50 [13]: > 1000 nM

From US10294227B2, “Compounds” (UNIVERSITY COURT OF THE UNIVERSITY OF EDINBURGH, priority 2015, dated 2019)
